The values that follow are results of earlier work, collected in article PMC9465641 (Frontiers in Pharmacology, 2022).

On the set-up of the data set: method as in Wang et al., 2021; Chen et al., 2022. To be noted: range reported previously; ref Wang et al., 2021; Chen et al., 2022; cited from earlier work.

In the case of polymyxin B, the CL was 1.59 to 2.86 L/h.
